These results are taken from US9556135B2, “Amino-dihydrothiazine and amino-dioxido dihydrothiazine compounds as beta-secretase antagonists and methods of use” (Amgen Inc., priority 2012, dated 2017).

One assay deals with Cathepsin D (Cat D) (Homo sapiens (Human), UniProt P07339). Nature of the assay: In vitro enzymatic Cathepsin D (Cat D) FRET assay. Type of assay: biochemical. Particulars: read-out: CatD IC50. On the procedure: In Vitro Enzymatic Cathepsin D (Cat D) FRET (Fluorescence Resonance Energy Transfer) Assay Recombinant Cat D was expressed in CHO cells. […] The Cat D enzyme (9 nM) is pre-incubated for one hour with inhibitors, typically in about 1 uL of DMSO according to a serial dilution, is added thereto. […] The FRET assay is terminated with by addition of Tris buffer, which raises the pH to neutrality, and the fluorescence is determined. The FRET substrate is a peptide with commercially available fluorophore and quencher, on opposite sides of the BACE cleavage site. The Cat D substrate peptide sequence is based on sequence #1 of Table 1 from Gulnik et al. […] Where available, the in-vitro Cat D FRET assay data for each of the Examples, conducted by the first procedure, is provided.

The target in assay [1] is Beta Secretase enzyme (BACE1) (Homo sapiens (Human), UniProt P56817). In words: In vitro enzymatic BACE FRET assay. Type of assay: biochemical. On the procedure:
In Vitro Enzymatic BACE FRET (Fluorescence Resonance Energy Transfer) Assay (Enzyme Assay Data in the Example Tables I and II)
The assay buffer used in this screen is 0.05 M acetate, pH 4.2, 10% DMSO final, 100 uM genapol (which is a nonionic detergent, below its Critical Micelle Concentration). […] This assay is effectively started by the addition of FRET substrate (50 nM) and the combination is incubated for one hour. The FRET assay is terminated with by addition of Tris buffer, which raises the pH to neutrality, and the fluorescence is determined. The FRET substrate is a peptide with commercially available fluorophore and quencher, on opposite sides of the BACE cleavage site. Proteolytic cleavage of the FRET substrate releases quenching of fluorescence (excitation […] and […]).

The next assay deals with Abeta 40. In words: In vivo inhibition of beta-secretase: Abeta 40 reduction in CSF and brain of the rat. Particulars: 10 mpk (unless otherwise noted), after 4 hrs. An excerpt:
In Vivo Inhibition of Beta-Secretase
Several animal models, including mouse, rat, dog, and monkey, may be used to screen for inhibition of beta-secretase activity in vivo following administration of a test compound sample. Animals used in this invention can be wild type, transgenic, or gene knockout animals. […] One to twenty-four hours following the administration of compound, animals are sacrificed, and brains as well as cerebrospinal fluid (CSF) and plasma are removed for analysis of A-beta levels and drug or test compound concentrations (Dovey et al., 2001, Journal of Neurochemistry, 76, 173-181) Beginning at time 0, animals are administered by oral gavage, or other means of delivery such as intravenous injection, an inhibitory test compound of up to 100 mg/kg in a standard, conventional formulation, such as 2% hydroxypropyl methylcellulose, 1% Tween80. A separate group of animals receive 2% hydroxypropyl methylcellulose, 1% Tween80 alone, containing no test compound, and serve as a vehicle-control group. At the end of the test period, animals are sacrificed and brain tissues, plasma or cerebrospinal fluid are collected. Brains are either homogenized in 10 volumes (w/v) of 0.2% diethylamine (DEA) in 50 mM NaCl (Best et al., 2005, Journal of Pharmacology and Experimental Therapeutics, 313, 902-908), or in 10 volumes of 0.5% TritonX-100 in Tris-buffered saline (pH at about 7.6). Homogenates are centrifuged at 355,000 g, 4° C. for 30 minutes. CSF or brain supernatants are then analyzed for the presence of A-beta peptide by specific sandwich ELISA assays based on ECL (Electrochemiluminescence) technology. For example, rat Abeta40 is measured using biotinylated-4G8 (Signet) as a capture antibody and Fab40 (an in-house antibody specific to the C-terminal of Abeta40) as a detection antibody.
Actual vehicles used: Oral: 2% HPMC, 1% Tween80, pH 2.2

pIC50: −log10 of the molar value. Like-named read-outs stand apart in the source and are kept apart here.

What is called pIC50 is the negative decadic logarithm of the IC50, by convention in mol/L.

Cathepsin D (Cat D), sequence (P07339 65-412, species assumed): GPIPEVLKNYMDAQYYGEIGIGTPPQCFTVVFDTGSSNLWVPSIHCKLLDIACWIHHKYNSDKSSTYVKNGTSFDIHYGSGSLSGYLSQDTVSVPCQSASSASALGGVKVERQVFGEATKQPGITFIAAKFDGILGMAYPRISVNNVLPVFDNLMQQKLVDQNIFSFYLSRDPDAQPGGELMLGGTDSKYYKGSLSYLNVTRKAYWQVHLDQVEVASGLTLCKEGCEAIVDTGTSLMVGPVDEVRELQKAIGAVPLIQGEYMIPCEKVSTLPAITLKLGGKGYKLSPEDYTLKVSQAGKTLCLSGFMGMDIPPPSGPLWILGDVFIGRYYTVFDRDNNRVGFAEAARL
Beta Secretase enzyme (BACE1), sequence (P56817 46-501): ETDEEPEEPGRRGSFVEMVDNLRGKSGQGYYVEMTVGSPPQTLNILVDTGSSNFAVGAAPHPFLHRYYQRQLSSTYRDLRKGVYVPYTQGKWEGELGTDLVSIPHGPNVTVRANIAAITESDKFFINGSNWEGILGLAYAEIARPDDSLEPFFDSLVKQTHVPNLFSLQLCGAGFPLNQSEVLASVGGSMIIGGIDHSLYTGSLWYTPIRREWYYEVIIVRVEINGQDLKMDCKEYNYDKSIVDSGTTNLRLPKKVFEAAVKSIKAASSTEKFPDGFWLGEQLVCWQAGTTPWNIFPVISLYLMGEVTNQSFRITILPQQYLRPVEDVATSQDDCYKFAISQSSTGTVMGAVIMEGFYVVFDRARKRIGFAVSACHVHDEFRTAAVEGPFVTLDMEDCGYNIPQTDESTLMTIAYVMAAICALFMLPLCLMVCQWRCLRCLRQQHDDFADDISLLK

Turning to `C[C@]1(c2cc(NC(=O)c3cnc(C(F)F)cn3)ccc2F)N=C(N)C2(CCC2)S(=O)(=O)[C@@H]1F` [Example 140, N-(3-((6S,7R)-9-amino-6-fluoro-7-methyl-5,5-dioxido-5-thia-8-azaspiro[3.5]non-8-en-7-yl)-4-fluorophenyl)-5-(difluoromethyl)pyrazine-2-carboxamide], the pIC50 on Cathepsin D (Cat D) was 3.40.
Turning to `CC1(C)C(N)=N[C@](C)(c2cc(Nc3nccc4cc(Cl)cnc34)cc(F)c2F)CS1(=O)=O` [Example 69, (R)-5-Amino-3-(5-((3-chloro-1,7-naphthyridin-8-yl)amino)-2,3-difluorophenyl)-3,6,6-trimethyl-3,6-dihydro-2H-1,4-thiazine 1,1-dioxide], the pIC50 on Cathepsin D (Cat D) is 4.95; in assay [1], 8.85.
Regarding `CC1(C)C(N)=N[C@@]2(c3cc(N)ccc3F)COC[C@H]2S1(=O)=O` [Example 185c, (4aS,7aS)-3-amino-4a-(5-amino-2-fluorophenyl)-2,2-dimethyl-4a,5,7,7a-tetrahydro-2H-furo[3,4-b][1,4]thiazine 1,1-dioxide], the pIC50 at Cathepsin D (Cat D) (Cathepsin D FRET assay) is < 3.40; in assay [1] (average IC50, enzyme assay), < 4.40.
`CC1(C)C(N)=N[C@]2(c3cc(N)ccc3F)COC[C@@H]2S1(=O)=O` [Example 185d, (4aR,7aR)-3-amino-4a-(5-amino-2-fluorophenyl)-2,2-dimethyl-4a,5,7,7a-tetrahydro-2H-furo[3,4-b][1,4]thiazine 1,1-dioxide]: the pIC50 is 3.82 on Cathepsin D (Cat D) (Cathepsin D FRET assay) and 5.42 in assay [1] (average IC50, enzyme assay).
As for `COc1cnc2c(Nc3cnc(F)c([C@]4(C)CS(=O)(=O)C(C)(C)C(N)=N4)c3)nccc2c1` [Example 66, N-(5-((3R)-5-amino-3,6,6-trimethyl-1,1-dioxido-3,6-dihydro-2H-1,4-thiazin-3-yl)-6-fluoro-3-pyridinyl)-3-methoxy-1,7-naphthyridin-8-amine], the figures for the pIC50 (on Cathepsin D (Cat D); in assay [1]) were 4.00 and 8.37, respectively.
As to `COc1cnc(C(=O)Nc2ccc(F)c([C@]3(C)CSCC(N)=N3)c2)cn1` [Example 43, (R)—N-(3-(5-amino-3-methyl-3,6-dihydro-2H-1,4-thiazin-3-yl)-4-fluorophenyl)-5-methoxypyrazine-2-carboxamide], the pIC50 on Cathepsin D (Cat D) was < 3.40.
Take `CC1(C)C(N)=NC2(c3cc(Br)ccc3F)COCC2S1(=O)=O` (stereo not drawn) [Example 185, 3-amino-4a-(5-bromo-2-fluorophenyl)-2,2-dimethyl-4a,5,7,7a-tetrahydro-2H-furo[3,4-b][1,4]thiazine 1,1-dioxide]: the pIC50 on Cathepsin D (Cat D) was 3.49; in assay [1] (average IC50, enzyme assay), 4.52.
As to `COc1cnc2c(Nc3cnc(F)c([C@]4(C)CS(=O)(=O)C(C)(C)C(N)=N4)c3)ncc(F)c2c1` [Example 219, N-(5-((3R)-5-amino-3,6,6-trimethyl-1,1-dioxido-3,6-dihydro-2H-1,4-thiazin-3-yl)-6-fluoro-3-pyridinyl)-5-fluoro-3-methoxy-1,7-naphthyridin-8-amine], in the assay with Abeta 40, the “% reduction of rat CSF levels at 10 pmk” value is listed as 42% and the “% reduction of rat brain levels at 10 mpk” value (shortened to “% reduction … at 10 mpk”) came to 9%.
For `C[C@@]1(c2cc(NC(=O)c3ccc(Cl)cn3)ccc2F)CS(=O)(=O)C2(CC(F)(F)C2)C(N)=N1` [Example 120, (R)—N-(3-(9-amino-2,2-difluoro-7-methyl-5,5-dioxido-5-thia-8-azaspiro[3.5]non-8-en-7-yl)-4-fluorophenyl)-5-chloropicolinamide], in the assay on Abeta 40, the “% reduction of rat CSF levels at 10 pmk” value is recorded as 39% and the “% reduction … at 10 mpk” value was 18%.
On the same counts, the results for `CC1(C)C(N)=N[C@](C)(c2cc(NC(=O)c3cnc(OCC(F)(F)F)cn3)ccc2F)CS1(=O)=O` [Example 346, N-(3-((3R)-5-amino-3,6,6-trimethyl-1,1-dioxido-3,6-dihydro-2H-1,4-thiazin-3-yl)-4-fluorophenyl)-5-(2,2,2-trifluoroethoxy)-2-pyrazinecarboxamide] are 69% and 48%.
With `Cc1cc(OC(F)F)cnc1C(=O)Nc1ccc(F)c([C@]2(CF)CS(=O)(=O)C(C)(C)C(N)=N2)c1` [Example 148, (S)—N-(3-(5-amino-3-(fluoromethyl)-6,6-dimethyl-1,1-dioxido-3,6-dihydro-2H-1,4-thiazin-3-yl)-4-fluorophenyl)-5-(difluoromethoxy)-3-methylpicolinamide], in the assay with Abeta 40, the “% reduction of rat CSF levels at 10 pmk” value stood at 68% and the “% reduction … at 10 mpk” value stood at 57%.
For `COCc1cc(Cl)cnc1C(=O)Nc1ccc(F)c([C@]2(CF)CS(=O)(=O)C(C)(C)C(N)=N2)c1` [Example 458, N-(3-((3S)-5-amino-3-(fluoromethyl)-6,6-dimethyl-1,1-dioxido-3,6-dihydro-2H-1,4-thiazin-3-yl)-4-fluorophenyl)-5-chloro-3-(methoxymethyl)-2-pyridinecarboxamide], in the assay on Abeta 40, the “% reduction of rat CSF levels at 10 pmk” value amounted to 35% and the “% reduction … at 10 mpk” value was 8%.
With `CC1(C)C(N)=N[C@]2(c3cc(Br)ccc3F)COC[C@@H]2S1(=O)=O` [Example 185b, (4aR,7aR)-3-amino-4a-(5-bromo-2-fluorophenyl)-2,2-dimethyl-4a,5,7,7a-tetrahydro-2H-furo[3,4-b][1,4]thiazine 1,1-dioxide], the pIC50 is < 3.40 on Cathepsin D (Cat D) and < 4.40 in assay [1] (average IC50, enzyme assay).
In the case of `CC1(C)C(N)=N[C@@]2(c3cc(Br)ccc3F)COC[C@H]2S1(=O)=O` [Example 185a, (4aS,7aS)-3-amino-4a-(5-bromo-2-fluorophenyl)-2,2-dimethyl-4a,5,7,7a-tetrahydro-2H-furo[3,4-b][1,4]thiazine 1,1-dioxide], the pIC50 is 4.15 at Cathepsin D (Cat D) and 5.32 in assay [1] (average IC50, enzyme assay).
In the case of `Cc1cc(OC(F)F)cnc1C(=O)Nc1ccc(F)c([C@]2(CF)CS(=O)(=O)C3(CCC3)C(N)=N2)c1` [Example 412, N-(3-((7S)-9-amino-7-(fluoromethyl)-5,5-dioxido-5-thia-8-azaspiro[3.5]non-8-en-7-yl)-4-fluorophenyl)-5-(difluoromethoxy)-3-methyl-2-pyridinecarboxamide], in the assay on Abeta 40, the “% reduction of rat CSF levels at 10 pmk” value came to 52% and the “% reduction … at 10 mpk” value is recorded as 33%.
Take `COc1ccc(C(=O)Nc2ccc(F)c([C@]3(CF)CS(=O)(=O)C(C)(C)C(N)=N3)c2)nc1` [Example 457, N-(3-((3S)-5-amino-3-(fluoromethyl)-6,6-dimethyl-1,1-dioxido-3,6-dihydro-2H-1,4-thiazin-3-yl)-4-fluorophenyl)-5-methoxy-2-pyridinecarboxamide]: in the assay with Abeta 40, the “% reduction of rat CSF levels at 10 pmk” value is on record as 67% and the “% reduction … at 10 mpk” value is 50%.
